Reference: patent US20020123648A1, “Aqueous stable lysine solution” (AJINOMOTO CO., INC., priority 1999, published 2002)

Legend:
[1] = storage at 50° C. for 6 weeks; cited from earlier work
[2] = used in the same molar amount; cited from earlier work
[3] = Solubility of lysine: suspension stirred 1 week at constant temperature, lysine analysed in supernatant; assay type: physicochemical; conditions: 20° C.; chloride ions at a molar ratio of 27% or less to the lysine (hydrochloric acid)
Method: 70% lysine base solution obtained under (1) above, 35% hydrochloric acid and deionized water were used in the amounts shown in Table 1 below, respectively, to prepare 7 kinds of solutions. In these solutions, the lysine base crystals obtained under (2) above and the lysine hydrochloride.2H2O crystals obtained under (3) above were suspended respectively in the amounts shown in the same table, and then stirred for 1 week during which the temperature was kept at 20° C.
The crystals were removed from these suspensions, and the concentration of the chloride ions in each of the remaining solutions was analyzed by an ion chromatographic analyzer “Yokokawa IC7000 model”, and the concentration of lysine therein was analyzed by an amino acid analyzer “Hitachi L-8500 model”. […]
The crystals were removed from these suspensions, and the concentration of the chloride ions in each of the resulting solutions (supernatants) was analyzed by the ion chromatographic analyzer “Yokokawa IC7000 model”, and the concentration of the lysine therein was analyzed by the amino acid analyzer “Hitachi L-8500 model”. […]

For NCCCC[C@H](N)C(=O)O [crystalline L-lysine, L-lysine], the coloration after storage [1] is listed as “evidently colored” and the “formation of by-products after storage” value [1] is listed as “confirmed”.
In the case of Cl.NCCCC[C@H](N)C(=O)O [L-lysine monohydrochloride], the “action in a feeding experiment” value [2] is given as “same action”.
In the case of NCCCC[C@H](N)C(=O)O [lysine], the “solubility of lysine compared with the case where the chloride ions are not contained (FIG. 1)” value [3] is reported as “increased”.
